Data published in article PMC10451668, “Natural Acetogenins, Chatenaytrienins-1, -2, -3 and -4, Mitochondrial Potential Uncouplers and Autophagy Inducers—Promising Anticancer Agents” (Antioxidants, 2023).

Key:
Jurkat cells [1] = test: Oxidative stress and early apoptosis (MitoSOX Red and annexin V, MitoStress Kit); assay type: cell-based, human
Text: Changes in the mitochondrial membrane potential (ΔΨ) in Jurkat cells induced by treatment with the synthesized compounds were detected using MitoSOX Red, a positively charged probe that accumulates rapidly in mitochondria and as such can be used to detect superoxide/ROS production within mitochondria using fluorometry, microscopy, or flow cytometry. Live cells induced a low level of MitoSOX Red fluorescence, while cells with scattered mitochondrial membrane potential caused much higher MitoSOX Red fluorescence. Annexin V is a dye commonly used to detect early signs of apoptosis. […] Thus, using two different dyes, MitoSOX Red and annexin V (CF488A), in the FlowCellect™ MitoStress Kit (FCCH100109), we analyzed the mitochondrial membrane potential dissipation and associated apoptosis in Jurkat cells in response to the synthesized chatenaytrienins.
Therefore, simultaneous detection of mitochondrial superoxide generation (detected by MitoSOX Red membrane-penetrating dye) and expression of phosphatidylserine on the cell surface of apoptotic cells (assessed by binding of annexin V) in the same cell sample provides an accurate evaluation of the ability of the test compound to initiate oxidative stress in cell culture and induce apoptosis.

Jurkat cell lysates = test: Multiplex analysis of signaling, genotoxicity and early apoptosis proteins (MILLIPLEX MAP, Luminex); assay type: cell-based, human
Description: Multiplex analysis was performed according to a previously published method. MILLIPLEX®MAP technology is used to determine the total protein or phosphorylated protein levels of various biological analytes, such as kinases or signaling proteins, including CREB, ERK/MAP, p70 S6, p21, p38, PI3K/AKT/mTOR, JNK (A), p53, MDM2, Bcl-2/Bax, STAT3 and STAT5, Nf-kB, Caspase 3-8-9, JNK, ATM, Chk1, Chk2, and H2AX, in cell lysates using the Luminex® system ((MILLIPLEX Multi-Pathway Magnetic Bead 9-Plex—Cell Signaling Multiplex Assay kit, Merk, Germany). This MILLIPLEX®MAP technology provides an alternative to Western blotting and immunoprecipitation and has several important advantages, such as more accurate measurement of small amounts of protein and the elimination of analyte loss during sample preparation. The multiplex immunoassay (MILLIPLEX 48-680MAG; Merck Millipore, Germany) was performed in Millipore 96-well plates to detect changes in concentrations of phosphorylated and unphosphorylated proteins p53, MDM2, p21, p38, PI3K/AKT/mTOR, Bcl-2/Bax, STAT3 and STAT5, Nf-kB, Caspase 3 -8-9, CREB, ERK/MAP, p70 S6, JNK, ATM, Chk1, Chk2, and H2AX in Jurkat cell lysates.
The levels of phosphorylated and non-phosphorylated proteins were analyzed using MILLIPLEX® map technology to study the analytes in the same sample within a fairly short time. Various deviations in protein concentration due to external factors or detection errors that could affect the results of the experiment were thereby reduced to zero.
The expression of p53, MDM2, p21, p38, PI3K/AKT/mTOR, Bcl-2/Bax, STAT3 and STAT5, Nf-kB, Caspase 3-8-9, CREB, ERK/MAP, p70 S6, JNK, ATM, Chk1, Chk2, and H2AX proteins in lysate samples of Jurkat tumor cells were studied using Luminex technology with the MILLIPLEX® MAP 9-Plex Multi-Pathway 9-plex Magnetic Bead Kit. This bead-based assay involved color-coded fluorescent particles pre-coated with specific antibodies targeting 9 major kinases in signaling pathways.

T24 bladder cancer cells = test system: T24 bladder cancer cells; set-up: method as in PMID 16154156; conditions: cited from earlier work
Jurkat tumor cell line = test: Assessment of cytochrome c loss (FlowCellect Cytochrome c Kit); assay type: cell-based, human; conditions: compound at CC50, incubation 3 h, anti-cytochrome c-FITC
Description: Quantification of cytochrome c release from mitochondria in apoptotic cells was presented to detect the mitochondrial pathway of apoptosis in cells using flow cytometry with the FlowCellect™ Cytochrome c Kit (FCCH100110). For this, cells were treated with FITC-conjugated antibodies against cytochrome c and control anti-IgG1-FITC, together with the use of an optimized fixation procedure, permeabilization, and blocking buffer (Luminex®, USA). […] Jurkat cells were incubated for 4 h with the synthesized substances at a concentration corresponding to their 24-h CC50 in a culture plate and assessed using the NovoCyte Penteon Flow Cytometer System (Agilent, 5301 Stevens Creek Blvd., Santa Clara, CA, USA). The obtained data were processed using NovoExpress® software (ACEA).

Jurkat cells [2] = test: Detection of mitodamage: mitochondrial membrane potential and apoptosis (MitoSense Red, annexin V, 7-AAD); assay type: cell-based, human; conditions: compound at CC50, 4 h; for cells in late apoptosis (stained with 7-AAD): Jurkat; for Jurkat tumor cells with the Δψ dissipation phenomenon: MitoSense Red
Text: The use of reagents MitoSense Red, annexin V, and 7-AAD in the Millipore FlowCellect™ MitoDamage Kit allowed us to gain information on early, mid, and late apoptosis with one simple assay. […] After this time, the cells were dissociated using an accutase solution, stained, and analyzed using the NovoCyte Penteon Flow Cytometer System (Agilent, 5301 Stevens Creek Blvd., Santa Clara, CA, USA), according to the manufacturer’s protocols for the FlowCellect™ MitoDamage Kit and FlowCellect™ Oxidative Stress Characterization Kit (Merck).
Detection of mitochondrial potential dissipation using MitoSense Red, annexin V, and 7-AAD provided a simultaneous measurement of three important parameters of the cell state within the same cell sample: the state of the mitochondrial potential (Δψ), detected by the membrane-penetrating MitoSense Red dye; the expression of phosphatidylserine on the cell surface of apoptotic cells, assessed by the binding of annexin V to externalized phosphatidylserine; and the binding of 7-AAD to DNA in cells in the late stages of apoptosis. Multiparametric evaluation of these indicators of cell viability made it possible to determine the correlation and relationship between oxidation dissipation and phosphorylation with apoptosis.

[3] = test system: Fibroblasts (PCS-201-018); test: Cytotoxicity assay (7-AAD viability, flow cytometry); assay type: cell-based, human; conditions: normal fibroblasts; ± standard error of the mean, 95% CI in parenthesis
Jurkat cells [4] = test: Assessment of autophagy (anti-LC3/FITC, flow cytometry); assay type: cell-based, human; conditions: 0.5 CC50, 48 h
Text: Autophagy is involved in various physiological processes and its changes are associated with the pathogenesis of diseases such as neurodegenerative diseases, cardiovascular complications, cancer, and infectious diseases, as well as with physiological processes such as innate and specific immunity, pathogen clearance, lymphocyte selection, antigen presentation, and production of immunoglobulins. Therefore, the determination of LC3 protein inside autophagosomes without the cytosolic form of LC3-I at the stage of selective cell permeability was measured using flow cytometry. Thus, using the FlowCellect™ LC3-GFP Reporter Autophagy Assay Kit (FCCH100170 and FCCH100181), flow cytometry allowed for a rapid assay that could be combined with other phenotypic and functional markers to characterize different cell populations.
Canonical autophagy is associated with the conversion of LC3 protein (an autophagosome marker) from the cytoplasmic form of LC3I to the lipid-bound form of LC3II, which is associated with the membranes of maturing autophagosomes. The autophagy process can be conveniently classified into several stages. First, induction and translocation of the cytoplasmic LC3 protein occur due to the influence of external stimuli (adverse environmental influences)—the process is initiated by external/internal stimuli (for example, nutrient depletion or hypoxia). Then, the formation of autophagosomes begins, which are double-membrane vesicles that include the LC3 protein. This protein regulates the fusion of autophagosomes and lysosomes. It exists in two fractions—cytoplasmic LC3-I and LC3-II, isolated in the autophagosomal membrane. The LC3-II protein fraction was specified in our work, as its detection is a reliable indicator of the processes of autophagy in the cell.

Jurkat = test: Cytotoxicity assay (7-AAD viability, flow cytometry); assay type: cell-based, human; conditions: ± standard error of the mean, 95% CI in parenthesis
Text: (§1) Cells, including Jurkat E6.1 (human leukemic T cell lymphoblasts, catalogue no. 88042803), K562 (human chronic myelogenous leukemia cells, catalogue no. 89121407), U937 (human histiocytic lymphoma cells, catalogue no. 85011440), HL60 (human promyelocytic leukemia cells, catalog no. 98070106), HEK293 (human embryonic kidney cells with adenovirus, catalog no. 85120602), and human lung fibroblasts Ce (catalogue no. 90011883), were purchased from the European Collection of Authenticated Cell Cultures (UK Health Security Agency) and cultured according to standard protocols using sterile techniques. […] Cells were maintained in RPMI 1640 (Jurkat, K562, U937, and HL60) and DME M (fibroblast and HEK293) (Gibco) supplemented with […] glutamine, 10% FBS (Sigma), and 100 units/mL penicillin-streptomycin (Sigma). All types of cells were grown under an atmosphere of 5% CO2 at 37 °C. The cells were subcultured at 2–3-day intervals. Cells were then seeded in 24-well plates at 5 × 10^4 cells per well and incubated overnight. Jurkat, K562, U937, HL60, HEK293, and fibroblast cells were subcultured at 2-day intervals with a seeding density of 1 × 10^5 cells per well in 24-well plates in RPMI with 10% FBS.
(§2) Viability (live/dead) assessment was performed by staining cells with 7-AAD (7-aminoactinomycin D; Biolegend). After treatment, cells were harvested, washed 1–2 times with phosphate-buffered saline (PBS), and centrifuged at 400× g for 5 min. Cell pellets were resuspended in 200 µL of flow cytometry staining buffer (PBS without Ca^2+ and Mg^2+, 2.5% FBS) and stained with […] of 7-AAD staining solution for 15 min at room temperature in the dark. Samples were assessed using the NovoCyte Penteon Flow Cytometer System (Agilent, 5301 Stevens Creek Blvd., Santa Clara, CA, USA). Detection of 7-AAD emission was collected through a 675/30 nm filter in the FL4 channel.

K562 = test: as above; assay type: cell-based, human; conditions: ± standard error of the mean, 95% CI in parenthesis
Text: as §1, §2

Hek293 = test: as above; assay type: cell-based, human; conditions: Hek293, conditionally normal line; ± standard error of the mean, 95% CI in parenthesis
Text: as §1, §2

HL60 = test: as above; assay type: cell-based, human; conditions: ± standard error of the mean, 95% CI in parenthesis
Text: as §1, §2

U937 = test: as above; assay type: cell-based, human; conditions: ± standard error of the mean, 95% CI in parenthesis
Text: as §1, §2

Which “intact (live) cells in the sample” value (Jurkat cells [1]; antimycin 100 µM, 4 h) does the source give for `CCCCCC[C@H]1C(=O)O[C@H](C)[C@H](NC(=O)c2cccc(NC=O)c2O)C(=O)O[C@@H](C)[C@@H]1OC(=O)CC(C)C` [antimycin, reference compound] here?
The value was 12.65%.

With `CCCCCCCCCCCC/C=C\CC/C=C\CCCCCCCCCCCCC1=C[C@H](C)OC1=O` [muricadienin, reference compound] as the molecule, how does the “expression of caspase-8” value (Jurkat cell lysates; 6 h and 12 h) read?
The value was “did not significantly affect”.

And the “concentration of p53” value (Jurkat cell lysates; after 12 h of incubation, versus control)?
The value was “significantly increased”.

And the “levels of all types of kinase proteins (CREB, JNK, NFkB, p38, ERK1/2, Akt, p70S6K, STAT3, STAT5)” value (Jurkat cell lysates; compound at CC50, 4 h, MFI versus intact cells)?
Its value is “most pronouncedly reduced”.

What about the “cleaved caspase-9” value (Jurkat cell lysates; especially after 12 h, level exceeded control) of the same molecule?
Its value is “promoted the accumulation”.

What about the “level of BAD protein” value (Jurkat cell lysates; first 6 h, within 12 h began to increase again, not reaching control) of the same molecule?
The value was “decreased”.

For `CCCCCC[C@H](O)CCC[C@H](O)[C@H]1CC[C@H]([C@H]2CC[C@H]([C@H](O)CCCCCCCCCCCCC3=C[C@H](C)OC3=O)O2)O1` [squamocin], which “effect on cell cycle” value (T24 bladder cancer cells) is on record?
Its value is “blocked cells in the G1 phase”.

What does the source list for `CN[C@@H]1C[C@H]2O[C@@](C)([C@@H]1OC)n1c3ccccc3c3c4c(c5c6ccccc6n2c5c31)C(=O)NC4` [staurosporine, reference compound]?
cells with cytochrome c released into the cytoplasm (Negative gate) (Jurkat tumor cell line): 80.23%; cells in late apoptosis (stained with 7-AAD) (Jurkat cells [2]): 2.48%

Which results are given for chatenaytrienin-3 [compound 3]?
CC50 [3]: 830 ± 50 nM; cells with cytochrome c released into the cytoplasm (Negative gate) (Jurkat tumor cell line): 41.99%; cells with autophagy (gate M3-2) (Jurkat cells [4]): 91.50%; intact (live) cells in the sample (Jurkat cells [1]; compound at CC50, 4 h): 9.9%; cells in late apoptosis (stained with 7-AAD) (Jurkat cells [2]): 17.01%; Jurkat tumor cells with the Δψ dissipation phenomenon (Jurkat cells [2]): 62.42%; CC50 (Jurkat): 150 ± 40 nM; CC50 (K562): 90 ± 10 nM; CC50 (Hek293): 780 ± 40 nM; CC50 (HL60): 140 ± 40 nM; CC50 (U937): 180 ± 20 nM

Which results are given for chatenaytrienin-4 [compound 4]?
CC50 [3]: 980 ± 40 nM; cells with cytochrome c released into the cytoplasm (Negative gate) (Jurkat tumor cell line): 42.10%; cells with autophagy (gate M3-2) (Jurkat cells [4]): 56.09%; cells demonstrating oxidative stress along with the marker of early apoptosis, annexin (Jurkat cells [1]; compound at CC50, 4 h, MitoSOX Red and annexin V): 26.8%; cells in late apoptosis (stained with 7-AAD) (Jurkat cells [2]): 1.88%; Jurkat tumor cells with the Δψ dissipation phenomenon (Jurkat cells [2]): 53.51%; CC50 (Jurkat): 160 ± 10 nM; CC50 (K562): 130 ± 40 nM; CC50 (Hek293): 530 ± 10 nM; CC50 (HL60): 190 ± 20 nM; CC50 (U937): 130 ± 50 nM
